Where two headings read alike, the source gives them in different places. Residues, ends and D or L forms follow the SMILES beside them.
Key:
[1] = tested on: P. aeruginosa R1 biofilm; conditions: 4 μM, 2 hours treatment
Method: (§1) Data points are the mean±SEM of three independent experiments. The levels of statistically significant differences between the two peptides are indicated as follows *P<0.05, **P<0.01, ***P<0.001
(§2) The reference strain and the clinical isolates were grown at 37° C. in Luria-Bertani broth (LB) to mid-log phase (optical density of 0.8 at 590 nm). With the help of tweezers, silicone hydrogel narafilcon A soft CL (1-Day ACUVUE TruEye) were removed from the manufacturer's containers, and washed thrice in phosphate buffered saline (PBS). The lenses were then immersed into wells of a 24-multiwell plate, each well containing 1 mL of bacterial inoculum in 1/10 LB at a concentration of 5×10^4 colony-forming units (CFU)/mL. Noteworthy, the number of bacteria isolated from CL storage cases has been reported to range from 1 to 6×10^4 CFU/case (2, 10). Therefore, in order to reproduce a more realistic level of bacteria to which CLs can be exposed, an inoculum size of 5×10^4 CFU/mL was used for biofilm formation.
(§3) The plate was then incubated in a humidified incubator at 37° C. at 125 rpm to allow biofilm formation on the surface of both lens sides. After 20 hours of incubation, each lens was washed thrice with PBS to remove any non-adherent planktonic cells.
(§4) The lenses were then transferred into wells of a new 24-multiwell plate, each well containing serial dilutions of Esc-1a(1-21)NH2 and Esc-1a(1-21)-1cNH2 in PBS. For […] controls, the lenses were immersed in sterile PBS. The new plate was then incubated at 37° C. for 2 hours with gentle shaking (125 rpm). After peptide treatment, each lens was washed thrice in PBS and transferred into wells of another 24-multiwell plate, each well containing 350 μL of 0.5 mg/mL of 3-(4,5-dimethylthiazol-2-yl)-2,5-diphenyltetrazolium bromide (MTT, from Sigma Aldrich, Milan, Italy) in Hank's solution (136 mM NaCl; 0.34 mM Na2HPO4; 0.44 mMKH2PO4; 5.4 mM KCl; 4.1 mM NaHCO3 pH 7.2, supplemented with 5.5 mM D-glucose) as previously reported (8). The killing of biofilms was determined as a function of the inhibition of MTT reduction to insoluble formazan crystals by bacterial reductases. The plate was incubated again for 2 hours (125 rpm) at 37° C. Formazan crystals were solubilized by the addition of acidified isopropanol. During overnight incubation at room temperature the resulting purple color was absorbed by the lens. Afterward, each lens was soaked in absolute ethanol (500 μL in each well) to decolor it. Aliquots of 100 μL were finally transferred to the wells of a 96-multiwell plate and absorbance was measured at 590 nm using a microplate reader (Infine M 200, Tecan). Untreated bacterial cells in PBS were the control. Percentage of killing was calculated according to the formula: [1−(Abs of treated samples−Abs of blank/Abs of control samples-Abs of blank)][…], where the blank was the solvent PBS.

[2] = tested on: P. aeruginosa ATCC 27853 biofilm; conditions: 2 hours treatment
Method: as §1, §2, §3, §4

[3] = tested on: P. aeruginosa ATCC 19660; test: Bactericidal activity in the presence of basal human tears; assay type: cell-based, Pseudomonas aeruginosa; conditions: 10 μM peptide, within 30 minutes, 70% (v/v) basal tears
Method: (§5) FIGS. 2A-2B show the effects of human basal tears on the bactericidal activity of Esc-1a(1-21)NH2 against P. aeruginosa ATCC 27853 (FIG. 2A) and ATCC 19660 (FIG. 2B). Bacterial cells were incubated with the peptide in the presence of different concentrations of tears collected from eighteen consenting adult volunteers with normal ocular surface and pooled. Aliquots were withdrawn for cell counting at different time intervals. Mean data (n=3), expressed as the percentage of bacteria killed by the peptide are shown. *Indicates significant difference, p<0.05.
(§6) 2×10^6 CFU/ml P. aeruginosa (ATCC 27853 or ATCC 19660) were incubated with 1-20 μM Esc-1a(1-21)NH2 in the presence of 50% or 70% v/v tears and aliquots withdrawn, plated and counted after 30, 90 and 120 minutes (n=3).

[4] = tested on: P. aeruginosa ATCC 27853; test: as above; assay type: cell-based, Pseudomonas aeruginosa; conditions: for percentage of bacteria killed: 20 μM peptide, 90 minutes
Method: as §5, §6

[5] = tested on: TNF-α secretion from LPS-stimulated RAW264.7 macrophages; test: Anti-endotoxin activity: TNF-α release from LPS-stimulated macrophages (ELISA); assay type: cell-based, murine; conditions: LPS 10 ng/ml, 4 hours
Method: RAW264.7 cells were stimulated with LPS (10 ng/ml) derived from P. aeruginosa 10 in the presence of 1, 5, 10 and 20 μM Esc-1a(1-21)NH2 for 4 hours at 37° C. and 5% CO2. The percentage of inhibition of TNF-α release was normalized to that of macrophages stimulated with LPS without peptide (0% inhibition).
Macrophages (Raw 264.7) were cultured overnight in 96-well plates (1×10^5 cells/well) in DMEM supplemented with 2 mM L-glutamine, 1 mM sodium pyruvate, non-essential amino acids (NEAA), and 10% FBS. The medium was then removed and replaced with fresh medium containing LPS (10 ng/ml final concentration) and the peptide at different concentrations. Cells were incubated at 37° C. for 4 h, after which the medium was collected and TNF-α concentration in the samples was evaluated using a mouse TNF-α enzyme-linked immunosorbant assay kit according to the manufacturer's protocol (ELISA, Biosource). Cells that were stimulated with LPS alone, and untreated cells served as controls. All experiments were done in triplicate.

[6] = tested on: P. aeruginosa ATCC 27853; test: Bactericidal activity in the presence of salt (NaCl); assay type: cell-based, Pseudomonas aeruginosa; conditions: 150 mM NaCl, 37° C., 20 min
Method: FIGS. 1A-1B show the effects of salt on the bactericidal activity of Esc-1a(1-21)NH2 against P. aeruginosa ATCC 27853. FIG. 1A: Bacterial cells were incubated with different concentrations of Esc-1a(1-21)NH2 in the presence of 150 mM NaCl for 20 minutes at 37° C. Mean data from three experiments, expressed as the percentage of bacteria killed by the peptide with respect to the control sample (bacteria not treated with the peptide) are reported. FIG. 1B: Bacterial cells were incubated with the peptide (1 μM) in the absence or in the presence of varying concentrations of NaCl at 37° C. for 20 minutes. Mean data from three experiments, expressed as the percentage of bacteria killed by the peptide with respect to the control sample (bacteria not treated with the peptide) are reported.
Owing to their mode of action, the antimicrobial activity of antimicrobial peptides may be reduced in the presence of salt. […] In FIG. 1B, 2×10^6 CFU/ml P. aeruginosa (ATCC 27853) were incubated with 1 μM Esc-1a(1-21)NH2 in the presence of increasing amounts of NaCl at 37° C. for 20 minutes then aliquots plated and counted (n=3). Concentrations of Esc-1a(1-21)NH2 at 0.68 μM and above fully retained activity in 150 mM NaCl, the physiological salt concentration at the ocular surface.

`CC[C@H](C)[C@H](NC(=O)CN)C(=O)N[C@@H](Cc1ccccc1)C(=O)N[C@@H](CO)C(=O)N[C@@H](CCCCN)C(=O)N[C@@H](CC(C)C)C(=O)N[C@@H](C)C(=O)NCC(=O)N[C@@H](CCCCN)C(=O)N[C@@H](CCCCN)C(=O)N[C@H](C(=O)N[C@@H](CCCCN)C(=O)N[C@@H](CC(N)=O)C(=O)N[C@@H](CC(C)C)C(=O)N[C@@H](CC(C)C)C(=O)N[C@H](C(=O)N[C@@H](CO)C(=O)NCC(=O)N[C@@H](CC(C)C)C(=O)N[C@@H](CCCCN)C(=O)NCC(N)=O)[C@@H](C)CC)[C@@H](C)CC` [Esc-1a(1-21)NH2] (H-GIFSKLAGKKIKNLLISGLKG-NH2; N-terminus assumed) was tested, and the biofilm killing [1] was 0%, the biofilm killing ([2]; 4 μM) was “activity was lost” and the biofilm killing ([2]; 32 μM) was “more than 50%”. The killing of bacteria [3] was “complete killing”, the “percentage of bacteria killed” value ([4]; 50% v/v basal tears) was 100% and the “percentage of bacteria killed” value ([4]; 70% v/v basal tears) was 70%. The “retention of activity in basal tears” value ([4]; 1-20 μM peptide, 50% or 70% v/v basal tears) was “the majority of Esc-1a(1-21)NH2 activity was retained”, the “inhibition of TNF-α secretion” value ([5]; 10 μM peptide) was ~80% and the “inhibition of TNF-α secretion” value ([5]; 20 μM peptide) was ~90%. For the same compound, the “Peptide concentration fully retaining bactericidal activity” value [6] was ≥ 0.68 µM.

Reference: US11110195B2, “Esculentin 1a derivatives and uses thereof” (University of Houston System, priority 2013, dated 2021)
